Measured values from patent publication US7223764B2, “2,4-bis (trifluoroethoxy)pyridine compound and drug containing the compound” (Kowa Co., Ltd., priority 2003, dated 2007).
Converted amounts (≈) assume the structure as drawn. Counter-ions that a name gives are not always drawn.

Experiments:
[1] = biological target: T1, ACAT (Mus musculus, UniProt Q61263); assay: Test for ACAT inhibitory activity in J774A cells (cholesterol ester production); format: cell-based
T1 construct: endogenous in cells; host or cells: J774 (J774A) cells
T1 sequence (Q61263 1-540): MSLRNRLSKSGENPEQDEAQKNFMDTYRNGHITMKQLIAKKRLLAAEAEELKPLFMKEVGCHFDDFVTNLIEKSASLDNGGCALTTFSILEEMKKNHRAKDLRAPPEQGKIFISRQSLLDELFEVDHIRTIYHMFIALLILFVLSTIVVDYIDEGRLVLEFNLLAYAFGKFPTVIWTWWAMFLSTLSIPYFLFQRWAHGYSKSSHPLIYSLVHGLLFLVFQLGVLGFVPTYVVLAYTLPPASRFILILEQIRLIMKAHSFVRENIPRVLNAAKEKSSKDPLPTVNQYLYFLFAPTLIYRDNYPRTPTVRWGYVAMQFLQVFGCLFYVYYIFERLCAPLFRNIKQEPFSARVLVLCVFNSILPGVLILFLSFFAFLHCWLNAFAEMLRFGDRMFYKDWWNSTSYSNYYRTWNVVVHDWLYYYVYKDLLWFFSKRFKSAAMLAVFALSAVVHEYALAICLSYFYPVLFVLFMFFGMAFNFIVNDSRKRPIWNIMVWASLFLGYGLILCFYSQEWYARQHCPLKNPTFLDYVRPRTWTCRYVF
Description: J774 cells (2×10^5 cells/well) were seeded on a 24-well plate and incubated for 24 hours in DMEM (10% FBS, 500 μL). After replacement with a new medium, 25-hydroxycholesterol (10 μg/mL) and ACAT inhibitor (final concentration: 0, 10^−9 to 10^−5 mol/L) were added thereto, followed by incubation for 18 hours. After washing with 0.9% sodium chloride, the lipid was extracted with hexane-isopropanol (3:2) (250 μL) and then with hexane-isopropanol (3:2) (250 μL) again. The extracts were combined, and the solvent was removed. The thus-obtained cholesterol ester (CE) was quantified through the fluorescent enzyme assay. The cells from which the lipid had been extracted were subjected to protein assay (micro BCA assay), to thereby determine the amount of CE per mg of protein.

[2] = Test on stability against metabolism in human liver microsome; format: in vitro ADME; settings: 30 minutes after initiation of reaction, 37° C., FIG. 1
Description: In accordance with Table 2 described below, an NRS (NADPH regenerating system) solution and 16% human serum albumin were added to 0.1 mol/L phosphate buffer (pH 7.4), and a solution of a test compound (100 μM) in acetonitrile (0.01 mL) was added thereto. The mixture was pre-incubated for five minutes in a warm bath at 37° C., and human liver microsome (POOLED HUMAN LIVER MICROSOMES, Lot. No. 20, product of GENTEST) was added thereto, followed by allowing reaction for 30 minutes in a warm bath at 37° C. An aliquot (0.25 mL) was collected from the reaction mixture 0 and 30 minutes after the start of reaction, followed by extraction*. The amount of the test compound was determined through HPLC. Residual percentage of the unchanged compound after 30 minutes was calculated based on the following equation: peak area after 30 minutes/peak area at 0 minute)×100.
To each sample, gkycine buffer (pH 10, 1.0 mL), an internal standard substance (0.1 mL), and tert-butyl methyl ether (5.0 mL) were added. The mixture was shaken for ten minutes and then centrifuged at 2,500 rpm […], and the […] was collected.

[3] = Solubility test (Japanese Pharmacopoeia Solution I); format: physicochemical; settings: simulated gastric fluid, kinetic from dmso stock, pH 1.2, filtrate through 0.2-μm filter, HPLC
Description: Each test compound was dissolved in acetonitrile to form a 100 μM solution, and the solution was added to Japanese Pharmacopoeia Solution I to form a 1000 ng/mL solution. The resultant solution was stirred for ten minutes, and an aliquot (1 mL) was placed into an injection tube and then passed through a 0.2-μm filter (HLC-DISK 13, water/solvent, Kanto Kagaku Kabushiki-kaisya). The filtrate (0.5 mL) was subjected to the extraction procedure*, and the amount of the test compound was determined through HPLC.
(§1) The extraction was performed in a manner similar to that of the test on stability against metabolism in human liver microsome.

[4] = Oral administration test in rats (plasma levels); format: in vivo, rat; settings: 10 mg/kg p.o.
Description: Each test compound was dissolved in a 0.01N hydrochloric acid solution, and the solution was perorally administered to male or female rats at 10 mg/5 mL/kg. Blood samples (0.25 mL each) were collected 30, 60, 120, 180, 240, and 360 minutes after administration. The collected blood samples were centrifuged for five minutes at 4° C. and 9,000 g, to thereby prepare plasma samples. The plasma samples were stored at −30° C. before measurement. The samples were subjected to the extraction procedure*, and plasma levels of the test compound were determined through LC/MS/MS.
as §1

IC50 [1] [nM] | residual percentage of the unchanged compound [2] [%] | solubility at 10 min [3] [µg/mL] | AUC ([4]; Female rat) [ng·h/mL] | Cmax ([4]; Female rat) [ng/mL] | AUC ([4]; Male rat) [ng·h/mL] | Cmax ([4]; Male rat) [ng/mL] | melting point [°C] | Compound
87 | 27 | 0.562 (≈ 0.9 µM) | 5100 | 3410 | 367 | 418 | 182 to 182.7 | Cc1cc(OCC(F)(F)F)c(NC(=O)CN2CCN(CCSc3nc4ccc(F)cc4[nH]3)CC2)c(OCC(F)(F)F)n1 [Compound (1a), 2-[4-[2-(5-fluorobenzimidazol-2-ylthio)ethyl]piperazin-1-yl]-N-[2,4-bis(2,2,2-trifluoroethoxy)-6-methylpyridin-3-yl]acetamide]
75 | 62 | 0.422 (≈ 0.657 µM) | 6550 | 2840 | 917 | 614 | 191 to 192 | Cc1cc(OCC(F)(F)F)c(NC(=O)CN2CCN(CCSc3nc4cc(F)c(F)cc4[nH]3)CC2)c(OCC(F)(F)F)n1 [Compound (1b), 2-[4-[2-(5,6-difluorobenzimidazol-2-ylthio)ethyl]piperazin-1-yl]-N-[2,4-bis(2,2,2-trifluoroethoxy)-6-methylpyridin-3-yl]acetamide]
 | 16 |  | 2470 | 1170 | 200 | 207 |  | CSc1cc(C)nc(SC)c1NC(=O)CN1CCN(CCSc2nc3ccccc3[nH]2)CC1 [Compound (B).HCl, reference compound]
